Assay results from paper PMC10719919 (ACS Omega, 2023).

What was measured:
AChE = AChE (Electrophorus electricus, UniProt O42275); assay: Enzyme kinetics of AChE inhibition; assay type: biochemical; conditions: for Vmax (μmol/min)^−^1: Vmax of AChE, not apparent
AChE EC 3.1.1.7 = AChE EC 3.1.1.7 (Electrophorus electricus, UniProt O42275); assay: biochemical
rabbit jejunum [1] = assay: Spasmolytic activity on spontaneous contraction of isolated rabbit jejunum; conditions: spontaneously contracting isolated rabbit jejunum; Mean ± SEM, n = 3
rabbit jejunum [2] = conditions: high K+ (80 mM)-contracted isolated rabbit jejunum; Mean ± SEM, n = 3
[3] = Cytotoxicity: human neutrophil viability assay; assay type: cell-based; conditions: human
human neutrophils = assay: Cytotoxicity: human neutrophil viability assay; assay type: cell-based; conditions: 200 μg/mL

Chain of AChE EC 3.1.1.7 (O42275 24-633): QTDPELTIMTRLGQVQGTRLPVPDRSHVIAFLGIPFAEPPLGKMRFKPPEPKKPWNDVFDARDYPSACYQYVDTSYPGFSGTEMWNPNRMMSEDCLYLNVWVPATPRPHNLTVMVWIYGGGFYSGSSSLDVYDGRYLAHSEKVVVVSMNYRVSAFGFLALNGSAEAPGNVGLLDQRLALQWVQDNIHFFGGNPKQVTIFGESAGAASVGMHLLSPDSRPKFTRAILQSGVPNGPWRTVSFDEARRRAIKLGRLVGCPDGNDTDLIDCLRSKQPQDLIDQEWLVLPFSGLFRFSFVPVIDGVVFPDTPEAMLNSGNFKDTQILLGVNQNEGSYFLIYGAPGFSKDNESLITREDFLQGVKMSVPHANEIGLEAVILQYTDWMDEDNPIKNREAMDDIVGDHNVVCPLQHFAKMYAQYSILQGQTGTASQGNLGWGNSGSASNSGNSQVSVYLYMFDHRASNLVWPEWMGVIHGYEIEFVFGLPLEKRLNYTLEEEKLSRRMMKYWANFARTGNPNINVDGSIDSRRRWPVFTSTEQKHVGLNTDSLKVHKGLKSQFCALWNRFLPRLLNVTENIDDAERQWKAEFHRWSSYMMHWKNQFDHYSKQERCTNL
Chain of AChE (O42275 24-633): as above

Compound | Ki (AChE) | type of inhibition (AChE) | Vmax (μmol/min)^−^1 (AChE) | IC50 (AChE EC 3.1.1.7) | Effective dose (ED50), Spontaneous (rabbit jejunum [1]) | Effective dose (ED50), High K+ (rabbit jejunum [2]) | viability at 30 min, 200 µg/ml [3] | toxicity in the neutrophil viability assay (in words) (human neutrophils)
CCSc1nc2ccccc2n1Cc1nnc(-c2ccc(F)cc2)o1 [Compound 15, 2-((2-(Ethylthio)-1H-benzo[d]imidazole-1-yl)methyl)-5-(4-fluorophenyl)-1,3,4-oxadiazole] | 53.3 ± 1.4 µM | noncompetitive | 5.0 (μmol/min)^−^1 | 130.5 ± 1.03 µM | – | – | – | –
CCCCCCCc1nnc(Cn2c(SCC)nc3ccccc32)o1 [Compound 16, 2-((2-(Ethylthio)-1H-benzo[d]imidazole-1-yl)methyl)-5-heptyl-1,3,4-oxadiazole] | 18.3 ± 1.7 µM | noncompetitive | 5.0 (μmol/min)^−^1 | 41.9 ± 0.67 µM | 0.12 ± 0.00 µg/mL | 0.22 ± 0.01 µg/mL | 96.1 ± 2.5% | nontoxic
CCSc1nc2ccccc2n1Cc1nnc(-c2ccco2)o1 [Compound 17, 2-((2-(Ethylthio)-1H-benzo[d]imidazole-1-yl)methyl)-5-(furan-2-yl)-1,3,4-oxadiazole] | 24.3 ± 1.3 µM | noncompetitive | 5.0 (μmol/min)^−^1 | 69.7 ± 0.95 µM | 0.13 ± 0.07 µg/mL | 0.26 ± 0.05 µg/mL | 100 ± 1% | nontoxic
CCSc1nc2ccccc2n1Cc1nnc(-c2cccc(OC)c2O)o1 [Compound 18, 2-(5-((2-(Ethylthio)-1H-benzo[d]imidazole-1-yl)methyl)-1,3,4-oxadiazol-2-yl)-6-methoxyphenol] | 98.77 ± 0.7 µM | noncompetitive | 5.0 (μmol/min)^−^1 | 248.8 ± 1.02 µM | – | – | – | –
CCOc1cccc(-c2nnc(Cn3c(SCC)nc4ccccc43)o2)c1O [Compound 19, 2-Ethoxy-6-(5-((2-(ethylthio)-1H-benzo[d]imidazole-1-yl)methyl)-1,3,4-oxadiazol-2-yl)phenol] | 93.3 ± 1.5 µM | noncompetitive | 5.0 (μmol/min)^−^1 | 223.5 ± 0.96 µM | – | – | – | –
CCSc1nc2ccccc2n1Cc1nnc(-c2ccc(OC)cc2)o1 [Compound 20, 2-((2-(Ethylthio)-1H-benzo[d]imidazole-1-yl)methyl)-5-(4-methoxyphenyl)-1,3,4-oxadiazole] | 147 ± 1.9 µM | noncompetitive | 5.0 (μmol/min)^−^1 | 380.1 ± 0.87 µM | – | – | – | –
CCSc1nc2ccccc2n1Cc1nnc(-c2ccccc2OC)o1 [Compound 21, 2-((2-(Ethylthio)-1H-benzo[d]imidazole-1-yl)methyl)-5-(2-methoxyphenyl)-1,3,4-oxadiazole] | 112 ± 1.3 µM | noncompetitive | 5.0 (μmol/min)^−^1 | 291.9 ± 1.52 µM | – | – | – | –
CCSc1nc2ccccc2n1Cc1nnc(-c2ccc(C)o2)o1 [Compound 22, 2-((2-(Ethylthio)-1H-benzo[d]imidazole-1-yl)methyl)-5-(5-methylfuran-2-yl)-1,3,4-oxadiazole] | 32.1 ± 1.4 µM | noncompetitive | 5.0 (μmol/min)^−^1 | 97.94 ± 0.79 µM | – | – | – | –
CCSc1nc2ccccc2n1Cc1nnc(-c2ccccc2Cl)o1 [Compound 23, 2-(2-Chlorophenyl)-5-((2-(ethylthio)-1H-benzo[d]imidazole-1-yl)methyl)-1,3,4-oxadiazole] | 45.1 ± 0.9 µM | noncompetitive | 5.0 (μmol/min)^−^1 | 118 ± 1.41 µM | – | – | – | –
CCSc1nc2ccccc2n1Cc1nnc(-c2ccc(OC)c(OC)c2)o1 [Compound 24, 2-(3,4-Dimethoxyphenyl)-5-((2-(ethylthio)-1H-benzo[d]imidazole-1-yl)methyl)-1,3,4-oxadiazole] | 284.2 ± 1.2 µM | noncompetitive | 5.0 (μmol/min)^−^1 | 692 ± 0.99 µM | – | – | – | –
CCSc1nc2ccccc2n1Cc1nnc(-c2ccc(Cl)cc2)o1 [Compound 25, 2-(4-Chlorophenyl)-5-((2-(ethylthio)-1H-benzo[d]imidazole-1-yl)methyl)-1,3,4-oxadiazole] | 83.21 ± 0.6 µM | noncompetitive | 5.0 (μmol/min)^−^1 | 208.3 ± 1.39 µM | – | – | – | –
CCSc1nc2ccccc2n1Cc1nnc(-c2ccc(O)cc2)o1 [Compound 26, 4-(5-((2-(Ethylthio)-1H-benzo[d]imidazole-1-yl)methyl)-1,3,4-oxadiazol-2-yl)phenol] | 30.5 ± 1.9 µM | noncompetitive | 5.0 (μmol/min)^−^1 | 93.2 ± 0.96 µM | – | – | – | –
CCSc1nc2ccccc2n1Cc1nnc(-c2cc(OC)c(OC)c(OC)c2)o1 [Compound 27, 2-((2-(Ethylthio)-1H-benzo[d]imidazole-1-yl)methyl)-5-(3,4,5-trimethoxyphenyl)-1,3,4-oxadiazole] | 775.02 ± 0.5 µM | noncompetitive | 5.0 (μmol/min)^−^1 | 1580.2 ± 0.76 µM | – | – | – | –
CCSc1nc2ccccc2n1Cc1nnc(-c2ccc([N+](=O)[O-])cc2)o1 [Compound 28, 2-((2-(Ethylthio)-1H-benzo[d]imidazole-1-yl)methyl)-5-(4-nitrophenyl)-1,3,4-oxadiazole] | 289.2 ± 0.8 µM | noncompetitive | 5.0 (μmol/min)^−^1 | 750.9 ± 1.19 µM | – | – | – | –
CCSc1nc2ccccc2n1Cc1nnc(-c2ccc(F)c(OC)c2)o1 [Compound 29, 2-((2-(Ethylthio)-1H-benzo[d]imidazole-1-yl)methyl)-5-(4-fluoro-3-methoxyphenyl)-1,3,4-oxadiazole] | 34.2 ± 0.9 µM | noncompetitive | 5.0 (μmol/min)^−^1 | 84.2 ± 1.99 µM | – | – | – | –
CCSc1nc2ccccc2n1Cc1nnc(-c2ccc(O)cc2O)o1 [Compound 30, 4-(5-((2-(Ethylthio)-1H-benzo[d]imidazole-1-yl)methyl)-1,3,4-oxadiazol-2-yl)benzene-1,3-diol] | 456.71 ± 0.2 µM | noncompetitive | 5.0 (μmol/min)^−^1 | 1190 ± 0.65 µM | – | – | – | –
CCSc1nc2ccccc2n1Cc1nnc(-c2ccccc2O)o1 [Compound 31, 2-(5-((2-(Ethylthio)-1H-benzo[d]imidazole-1-yl)methyl)-1,3,4-oxadiazol-2-yl)phenol] | 89.5 ± 1.5 µM | noncompetitive | 5.0 (μmol/min)^−^1 | 248.5 ± 1.81 µM | – | – | – | –
CCSc1nc2ccccc2n1Cc1nnc(-c2cccc(O)c2)o1 [Compound 32, 3-(5-((2-(Ethylthio)-1H-benzo[d]imidazole-1-yl)methyl)-1,3,4-oxadiazol-2-yl)phenol] | 148.8 ± 0.2 µM | noncompetitive | 5.0 (μmol/min)^−^1 | 400.7 ± 0.95 µM | – | – | – | –
CCSc1nc2ccccc2n1Cc1nnc(-c2cccc(O)c2O)o1 [Compound 33, 3-(5-((2-(Ethylthio)-1H-benzo[d]imidazole-1-yl)methyl)-1,3,4-oxadiazol-2-yl)benzene-1,2-diol] | 121 ± 0.5 µM | noncompetitive | 5.0 (μmol/min)^−^1 | 320.6 ± 1.12 µM | – | – | – | –
CCSc1nc2ccccc2n1Cc1nnc(-c2ccc(C)cc2)o1 [Compound 34, 2-((2-(Ethylthio)-1H-benzo[d]imidazole-1-yl)methyl)-5-(p-tolyl)-1,3,4-oxadiazole] | 135.2 ± 0.5 µM | noncompetitive | 5.0 (μmol/min)^−^1 | 377.4 ± 1.57 µM | – | – | – | –
CCSc1nc2ccccc2n1Cc1nnc(-c2ccc(N(CC)CC)cc2)o1 [Compound 35, N,N-Diethyl-4-(5-((2-(ethylthio)-1H-benzo[d]imidazole-1-yl)methyl)-1,3,4-oxadiazol-2-yl)aniline] | 101.3 ± 0.3 µM | noncompetitive | 5.0 (μmol/min)^−^1 | 258.1 ± 1.02 µM | – | – | – | –
COc1ccc2c3c1O[C@H]1C[C@@H](O)C=C[C@@]31CCN(C)C2 [Galanthamine, reference compound] | – | – | – | – | – | – | 96 ± 3.1% | –
